Results: US20100239669A1, “Combinations of statins and anti-obesity agent” (Scidose LLC, priority 2007, published 2010)

Assay: Patient on atorvastatin with orlistat added (co-therapy)
Type: in vivo, human
Protocol: A patient on atorvastatin 80 mg once daily is found to still be in need of reducing weight, triglyceride, and cholesterol levels further. […] The patient is maintained on this regimen for 2 months and thereafter the atorvastatin dosage is reduced to 60 mg once daily at which the reductions previously obtained are maintained. The patient is then switched to a fixed combination dosage form of 120 mg orlistat and 60 mg atorvastatin once daily. A patient on atorvastatin 10 mg once daily is found to be in need of weight reduction and triglyceride reduction, although cholesterol levels are adequately maintained by the atorvastatin. Orlistat 120 mg once daily is added to the regimen and each of weight, triglycerides and cholesterol drop. […] The patient is then changed to a fixed combination of 120 mg orlistat and 5 mg of atorvastatin.

## CCCCCCCCCCC[C@@H](C[C@@H]1OC(=O)[C@H]1CCCCCC)OC(=O)[C@H](CC(C)C)NC=O [orlistat, N-formyl-L-leucine ester of (3S,4S)-3-hexyl-4-[(2S)-2-hydroxytridecyl]-2-oxetanone]
Example 1: 120 mg once daily orlistat added to atorvastatin 80 mg once daily
  weight, serum triglycerides, and cholesterol: begins to lower
Example 1: after 2 months atorvastatin reduced to 60 mg once daily, orlistat 120 mg once daily
  reductions previously obtained (weight, triglycerides, cholesterol): maintained
Example 2: after 6 weeks, 120 mg orlistat once daily and 5 mg atorvastatin once daily
  lowered weight, triglycerides, and cholesterol levels: surprisingly maintains
Example 2: orlistat 120 mg once daily added to atorvastatin 10 mg once daily
  weight, triglycerides and cholesterol: drop
